Values after ≈ are worked out from the molar mass of the structure shown.
Experiments:
Test in all cases: In vitro antibacterial evaluation: minimum inhibitory concentration (MIC), broth dilution method
Format in all cases: cell-based
Escherichia coli = details: 18 hours at 35° C.
Method in brief: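 Susceptibility determined by NCCLS-recommended broth dilution (M7-A2), Muller-Hinton II […]. Concentration span 64-0.06 μg/mL, inoculum 5×10^5 CFU/mL. Isolates include strains resistant to methicillin, penicillin and/or vancomycin.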

Enterococcus sp. = details: 18 hours at 35° C.
Method in brief: (§1)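 MIC by broth dilution in Mueller-Hinton II medium following NCCLS M7-A2. Inoculum was 5×10^5 CFU/mL and antibiotic was tested over 64-0.06 μg/mL. Gram-positive panel included clinical isolates resistant to methicillin, penicillin and/or vancomycin.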

Staphylococcus sp. = tested on: Staphylococcus sp.
Method in brief: as §1

Streptococcus sp. = details: 18 hours at 35° C.
Method in brief: as §1

[1] = broth dilution, inoculum 5×10^5 CFU/mL

MIC Escherichia coli (GC 4559) (Escherichia coli; Escherichia coli (GC 4559)): 32 µg/mL (≈ 22.5 µM)
MIC Escherichia coli (GC 4560) (Escherichia coli; Escherichia coli (GC 4560)): 2 µg/mL (≈ 1.4 µM)
MIC Enterococcus avium (GC 4558) (Enterococcus sp.; Enterococcus avium (GC 4558)): 2 µg/mL (≈ 1.4 µM)
MIC Enterococcus faecalis (ATCC 29212) (Enterococcus sp.; Enterococcus faecalis (ATCC 29212)): 1 µg/mL (≈ 0.702 µM)
MIC Enterococcus faecalis (GC 2242) (Enterococcus sp.; Enterococcus faecalis (GC 2242)): 1 µg/mL (≈ 0.702 µM)
MIC Enterococcus faecalis (GC 2691) (Enterococcus sp.; Enterococcus faecalis (GC 2691)): 2 µg/mL (≈ 1.4 µM)
MIC Enterococcus faecalis (GC 3059) (Enterococcus sp.; Enterococcus faecalis (GC 3059)): 1 µg/mL (≈ 0.702 µM)
MIC Enterococcus faecalis (GC 4552) (Enterococcus sp.; Enterococcus faecalis (GC 4552)): 1 µg/mL (≈ 0.702 µM)
MIC Enterococcus faecalis (GC 4553) (Enterococcus sp.; Enterococcus faecalis (GC 4553)): 2 µg/mL (≈ 1.4 µM)
MIC Enterococcus faecalis (GC 4554) (Enterococcus sp.; Enterococcus faecalis (GC 4554)): 2 µg/mL (≈ 1.4 µM)
MIC Enterococcus faecalis (GC 6189) (Enterococcus sp.; Enterococcus faecalis (GC 6189)): 0.5 µg/mL (≈ 0.351 µM)
MIC Enterococcus faecium (GC 2243) (Enterococcus sp.; Enterococcus faecium (GC 2243)): 1 µg/mL (≈ 0.702 µM)
MIC Enterococcus faecium (GC 4556) (Enterococcus sp.; Enterococcus faecium (GC 4556)): 1 µg/mL (≈ 0.702 µM)
MIC Enterococcus faecium (GC 4557) (Enterococcus sp.; Enterococcus faecium (GC 4557)): 2 µg/mL (≈ 1.4 µM)
MIC Enterococcus avium (GC 4558) (Enterococcus sp.; [1]): 2 µg/mL (≈ 1.4 µM)
MIC Enterococcus faecalis (ATCC 29212) (Enterococcus sp.; [1]): 1 µg/mL (≈ 0.702 µM)
MIC Enterococcus faecalis (GC 2242) (Enterococcus sp.; [1]): 1 µg/mL (≈ 0.702 µM)
MIC Enterococcus faecalis (GC 2691) (Enterococcus sp.; [1]): 2 µg/mL (≈ 1.4 µM)
MIC Enterococcus faecalis (GC 3059) (Enterococcus sp.; [1]): 1 µg/mL (≈ 0.702 µM)
MIC Enterococcus faecalis (GC 4552) (Enterococcus sp.; [1]): 1 µg/mL (≈ 0.702 µM)
MIC Enterococcus faecalis (GC 4553) (Enterococcus sp.; [1]): 2 µg/mL (≈ 1.4 µM)
MIC Enterococcus faecalis (GC 4554) (Enterococcus sp.; [1]): 2 µg/mL (≈ 1.4 µM)
MIC Enterococcus faecalis (GC 6189) (Enterococcus sp.; [1]): 0.5 µg/mL (≈ 0.351 µM)
MIC Enterococcus faecium (GC 2243) (Enterococcus sp.; [1]): 1 µg/mL (≈ 0.702 µM)
MIC Enterococcus faecium (GC 4556) (Enterococcus sp.; [1]): 1 µg/mL (≈ 0.702 µM)
MIC Enterococcus faecium (GC 4557) (Enterococcus sp.; [1]): 2 µg/mL (≈ 1.4 µM)
MIC Staphylococcus aureus (ATCC 29213) (Staphylococcus sp.; strain ATCC 29213): 0.5 µg/mL (≈ 0.351 µM)
MIC Staphylococcus aureus (GC 1131) (Staphylococcus sp.; strain GC 1131): 1 µg/mL (≈ 0.702 µM)
MIC Staphylococcus aureus (GC 3051) (Staphylococcus sp.; strain GC 3051): 1 µg/mL (≈ 0.702 µM)
MIC Staphylococcus aureus (GC 3053) (Staphylococcus sp.; strain GC 3053): 0.5 µg/mL (≈ 0.351 µM)
MIC Staphylococcus aureus (GC 4541) (Staphylococcus sp.; strain GC 4541): 0.5 µg/mL (≈ 0.351 µM)
MIC Staphylococcus aureus (GC 4542) (Staphylococcus sp.; strain GC 4542): 0.25 µg/mL (≈ 0.176 µM)
MIC Staphylococcus aureus-SMITH (GC 4543) (Staphylococcus sp.; strain GC 4543): 0.5 µg/mL (≈ 0.351 µM)
MIC Staphylococcus aureus (GC 4544) (Staphylococcus sp.; strain GC 4544): 1 µg/mL (≈ 0.702 µM)
MIC Staphylococcus aureus (GC 4545) (Staphylococcus sp.; strain GC 4545): 0.5 µg/mL (≈ 0.351 µM)
MIC Coagulase Negative Staphylococcus (GC 4547) (Staphylococcus sp.; strain GC 4547): 1 µg/mL (≈ 0.702 µM)
MIC Coagulase Negative Staphylococcus (GC 4548) (Staphylococcus sp.; strain GC 4548): 0.25 µg/mL (≈ 0.176 µM)
MIC Coagulase Negative Staphylococcus (GC 4549) (Staphylococcus sp.; strain GC 4549): 0.25 µg/mL (≈ 0.176 µM)
MIC Coagulase Negative Staphylococcus (GC 4551) (Staphylococcus sp.; strain GC 4551): 0.5 µg/mL (≈ 0.351 µM)
MIC Coagulase Negative Staphylococcus (GC 6257) (Staphylococcus sp.; strain GC 6257): 0.25 µg/mL (≈ 0.176 µM)
MIC Streptococcus agalactiae (GC 4564) (Streptococcus sp.; Streptococcus agalactiae (GC 4564)): <0.06 µg/mL
MIC Streptococcus pneumoniae (ATCC 6301) (Streptococcus sp.; Streptococcus pneumoniae (ATCC 6301)): 0.12 µg/mL (≈ 0.0843 µM)
MIC Streptococcus pneumoniae (GC 1894) (Streptococcus sp.; Streptococcus pneumoniae (GC 1894)): <0.06 µg/mL
MIC Streptococcus pneumoniae (GC 4565) (Streptococcus sp.; Streptococcus pneumoniae (GC 4565)): <0.06 µg/mL
MIC Streptococcus pyogenes (GC 4563) (Streptococcus sp.; Streptococcus pyogenes (GC 4563)): <0.06 µg/mL
MIC Streptococcus agalactiae (GC 4564) (Streptococcus sp.; [1]): <0.06 µg/mL
MIC Streptococcus pneumoniae (ATCC 6301) (Streptococcus sp.; [1]): 0.12 µg/mL (≈ 0.0843 µM)
MIC Streptococcus pneumoniae (GC 1894) (Streptococcus sp.; [1]): <0.06 µg/mL
MIC Streptococcus pneumoniae (GC 4565) (Streptococcus sp.; [1]): <0.06 µg/mL
MIC Streptococcus pyogenes (GC 4563) (Streptococcus sp.; [1]): <0.06 µg/mL
SMILES: CC(c1ccc(Cl)cc1)C1NC(=O)CNC(=O)C(CO)NC(=O)C(C(O)C2CNC(=N)N2C2OC(CO)C(O)C(O)C2O)NC(=O)C(C(O)C2CNC(=N)N2)NC(=O)C(Cc2ccc(OC3OC(CO)C(OC4OC5COC(C6CCCCC6)OC5C(O)C4O)C(O)C3O)cc2)NC1=O (stereo not drawn) [Example 193]
MIC Staphylococcus haemolyticus (GC 4546) (Staphylococcus sp.; strain GC 4546): 0.5 µg/mL (≈ 0.351 µM)

Reference: patent US8247211B2, “Glycopeptide antibiotics” (American Cyanamid Company, priority 2001, dated 2012)
